Data from US20250129116A1, “CYCLOPROPANOL AS A BIOORTHOGONAL WARHEAD FOR ELECTROCHEMICALLY CONTROLLED BIOCONJUGATION APPLICATIONS” (UNIVERSITY OF SOUTH CAROLINA, priority 2023, published 2025).

Columns and labels:
Vero cells [1] = experiment: CellTiter Blue (CTB) cell viability assay; type: cell-based; details: 24 h
Protocol: The in vitro cytotoxicity test of CPol-choline analog or other chemicals on Vero cells was determined by CellTiter Blue (CTB) cell viability assay (Promega). Briefly, Vero cells were cultured in 96-well plates at a density of 12.5×10^3 cells per well one day prior experiment. On the following day, the media was replaced by fresh 10% FBS DMEM containing the choline analogs at the concentrations of 0.2, 0.4, 0.8, 1, and 5 mM and incubated for 24 h at 37° C. The cells without the compounds were used as controls. NaI and I2 were also tested at the concentrations varied from 0.01 to 10,000 μM. The experiments were performed in quadruplicate. After 24 h of incubation, the media in each well was replaced by prewarmed media containing 10% CTB reagent and incubated for 2 h at 37° C. and 5% CO2. The medium containing CTB without cells was used as a negative control. Fluorescence intensity was then measured at 560/590 nm (Ex/Em) using SpectraMax M2 Multi-Mode microplate reader (Molecular Devices) to indicate cell viability.

NIH-3T3 cells = experiment: Metabolic incorporation of CPol-choline, lipidomic experiments and LC-MS; type: cell-based; details: 5 mM, 24 h
Protocol: (§1) Three million cells (Vero, HeLa, or NIH-3T3) were seeded into a 10-cm cell culture dish and allowed attachment for 24 h in a complete medium (DMEM with 10% FBS) in a CO2 incubator. When cells reached 70-80% confluency, choline analog (PCPol-Cho or ECPol-Cho) at a final concentration of 5 mM was added into cells and co-cultured for another 24 h. The adhered cells were washed with 5 mL ice-cold DPBS (Dulbecco's Phosphate-Buffered Saline, CORNING), and were scratched into ice-cold PBS (5 mL), pooled in a centrifuge tube, and centrifuged at 1,000 rpm for 5 min at room temperature. The supernatant was then aspirated off and the lipids were extracted from the resultant pellet using the modified Bligh Dyer method. Briefly, the cell pellet was treated with a mixture of chloroform and methanol (1 mL of a 1:2 v/v solution), vortexed for 1 min, followed by addition of chloroform (0.5 mL) and 1 M NaCl (0.5 mL), and again vortexed for 1 min. Phase separation was achieved by centrifuging the mixture at 3,220 g at 4° C. for 30 min. The lower lipid-enriched organic layer was separated and dried using nitrogen at room temperature. For all LC-MS/MS analyses, the dried lipids were dissolved in a mixture of chloroform and methanol (200 μL of a 1:1 v/v solution). For all control experiments, the procedure described above was followed without administration of any choline derivatives.
(§2) Choline stands as the predominant head group in phospholipids which are the principal components of all cellular membranes. […] (FIG. 5A). The metabolic incorporation efficiency of CPol-choline was evaluated through lipidomic experiments (FIG. 15A) and LC-MS (FIG. 15B).

Hela cells = experiment: as above; type: cell-based; details: 5 mM, 24 h
Protocol: as §1, §2

Vero cells [2] = experiment: as above; type: cell-based; details: 5 mM, 24 h
Protocol: as §1, §2

Vero cells [3] = experiment: Electrochemically assisted cell labeling, FTSCA fluorescence; type: cell-based; details: CPol+NaI+Echem group: 5 mM CPol-choline, NaI 100 μM, 0.7 V, 50 μM FTSCA, plate reader
Protocol: Vero cells were cultured in a 100-mm cell culture dish and allowed attachment overnight in a complete medium (DMEM with 10% FBS). When cells reached 60-70% confluency, CPol-choline analog at a final concentration of 5 mM was added into Vero cells and co-cultured for 24 h. The labeled Vero cells were harvested into 5 mL Dulbecco's Phosphate-Buffered Saline (DPBS 1×, CORNING). The cell numbers were counted using a hemocytometer. The cell concentration at 6×10^6 cells was used in the experiment. Subsequently, the Vero cell suspension was treated with NaI (100 μM) and low cell potential (0.7 V) under divided H-cell for 10 min. […] For the fluorescence imaging, the cells in a 24-well plate were fixed with 70% ethanol at −20° C. for 10 min, washed with DPBS three times, and then reacted with 50 μM FTSCA for 1 h at room temperature. After removing the unbound FTSCA, the cells were imaged by a fluorescence microscope (Olympus IX81, Shinjuku-ku, Tokyo, Japan). […] After washing with DPBS, the plate was read using a plate reader (Tecan Infinite M200 microplate reader) with an excitation wavelength of 491 nm and emission cutoff at 520 nm. […]
The intensity of this fluorescence was quantified using a plate reader and visualized using fluorescence microscopy (FIG. 6A). […]

bivalirudin = experiment: Electrochemically promoted bioconjugation, MALDI-TOF MS and LC-MS; type: biochemical; details: NaBr, constant voltage 1.2 V, batch reaction
Protocol: (§3) Mass spectra were generated with a MALDI-TOF mass spectrometer (rapifleX MALDI Tissuetyper from BRUKER) equipped with a solid-state smart beam and operated in a linear delayed extraction positive ion mode. The samples of conjugated peptide were concentrated using IMCStips (1 mL, IMCS company) and eluted with 70% acetonitrile/0.1% trifluoracetic acid (TFA) following the manufacturer protocol. Of note, the samples of conjugated proteins and viruses were denatured by incubating with guanidinium chloride (8 M) for 5 min at RT, followed by the removal of salts and elution using IMCStips. The resultant samples were spotted on a MALDI plate. These spots were analyzed by MALDI-TOF MS spectrometer with the matrix (Vsample: Vmatrix=1:1). […]
(§4) To further access the compatibility of biomolecules and various CPol derivatives within the electrochemical bioconjugation process, a range of biomolecules including peptides, proteins, and TMV, along with different CPol derivatives, were subjected to the NaI or NaBr redox catalyst and a low cell potential of 0.8 V or 1.2 V individually (FIG. 4A). Electrochemical bioconjugation was employed for labeling angiotensin I, which is a peptide hormone responsible for vasoconstriction and evaluated in blood pressure. […]

angiotensin I = biological target: T1, angiotensin I (Homo sapiens, UniProt P01019); experiment: as above; type: biochemical; details: NaBr, constant voltage 1.2 V
T1 construct: labeling angiotensin I, which is a peptide hormone responsible for vasoconstriction
Protocol: as §3, §4

[4] = test system: wild-type tobacco mosaic virus (wt-TMV); experiment: Electrochemically promoted bioconjugation, MALDI-TOF MS; type: biochemical
Protocol: To purify wild-type plant virus tobacco mosaic virus (TMV), frozen TMV leaves were crushed and blended. Approximately 3 volumes of phosphate buffer were added to the crushed leaves with an addition of 0.2-0.3% 2-mercaptoethanol. The leaves were blended for 2 min at a low setting and then switched to the highest setting for an additional 3 min. The blended plant sap was filtered through two layers of cheesecloth and then flow through was centrifuged at 10500 rpm (Sorvall SLA 1500) at 4° C. for 20 min. The resulting supernatant was then pooled together and mixed with n-butanol/chloroform at a ratio of 2:1:1 (plant sap/n-butanol/chloroform). The homogenate was stirred for 30 min on ice and then centrifuged at 6000 rpm (SLA 4000) for 10 min at 4° C. The upper aqueous layer was transferred to a beaker, and the virus was precipitated by adding 0.2 M NaCl and 8% (wt/vol) PEG-8000. The mixture was stirred on ice for 60 min and centrifuged at 12000 rpm (Sorvall SLA1500) for 20 min. The white precipitant was then resuspended with 10 mM K phos buffer (pH 7.8). The solution was centrifuged at 9,500 rpm for 15 min at 4° C. to remove excess PEG. The supernatant was transferred to ultracentrifuge tubes (Beckman 50.2 Ti) and the virus was pelleted at 42,000 rpm at 4° C. for 3 h. The virus pellet was resuspended in 100 mM K phos buffer (pH 7.8) overnight at 4° C. UV absorbance was measured at 260 and 280 nm wavelengths to determine the concentration of the virus. […] The purified virus solutions were stored at 4° C.
Mass spectra were generated with a MALDI-TOF mass spectrometer (rapifleX MALDI Tissuetyper from BRUKER) equipped with a solid-state smart beam and operated in a linear delayed extraction positive ion mode. […] These spots were analyzed by MALDI-TOF MS spectrometer with the matrix (Vsample: Vmatrix=1:1). […]
Subsequently, the electrochemical bioconjugation approach was evaluated on lysozyme, a 14 kDa cationic protein. […] Additionally, the electrochemical bioconjugation on bovine serum albumin (BSA) was also evaluated. […]

[5] = biological target: bovine serum albumin (BSA) (Bos taurus, UniProt P02769); experiment: as above; type: biochemical; details: NaX (X=I or Br), 0.8 V or 1.2 V, phosphate buffer 0.1 M pH 7.0
bovine serum albumin (BSA), sequence (P02769 25-607): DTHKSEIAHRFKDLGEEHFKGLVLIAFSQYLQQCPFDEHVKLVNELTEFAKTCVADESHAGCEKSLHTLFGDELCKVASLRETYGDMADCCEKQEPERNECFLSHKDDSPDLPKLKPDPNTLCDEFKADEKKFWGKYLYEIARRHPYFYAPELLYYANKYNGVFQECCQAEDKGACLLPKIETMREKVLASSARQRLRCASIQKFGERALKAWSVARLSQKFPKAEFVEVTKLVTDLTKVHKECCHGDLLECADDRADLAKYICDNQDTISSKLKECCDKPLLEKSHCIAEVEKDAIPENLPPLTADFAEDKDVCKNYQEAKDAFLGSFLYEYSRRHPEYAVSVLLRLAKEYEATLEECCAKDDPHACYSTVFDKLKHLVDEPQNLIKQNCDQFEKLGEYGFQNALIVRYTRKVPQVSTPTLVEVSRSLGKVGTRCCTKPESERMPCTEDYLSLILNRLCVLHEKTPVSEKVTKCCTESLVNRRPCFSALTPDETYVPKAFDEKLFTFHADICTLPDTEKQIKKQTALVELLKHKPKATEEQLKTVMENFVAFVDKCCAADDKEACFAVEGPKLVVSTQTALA
Protocol: (§5) Mass spectra were generated with a MALDI-TOF mass spectrometer (rapifleX MALDI Tissuetyper from BRUKER) equipped with a solid-state smart beam and operated in a linear delayed extraction positive ion mode. The samples of conjugated peptide were concentrated using IMCStips (1 mL, IMCS company) and eluted with 70% acetonitrile/0.1% trifluoracetic acid (TFA) following the manufacturer protocol. Of note, the samples of conjugated proteins and viruses were denatured by incubating with guanidinium chloride (8 M) for 5 min at RT, followed by the removal of salts and elution using IMCStips. The resultant samples were spotted on a MALDI plate. These spots were analyzed by MALDI-TOF MS spectrometer with the matrix (Vsample: Vmatrix=1:1). Matrix of sinapic acid in 50% acetonitrile/0.1% TFA was used for protein measurements, and the matrix of a-Cyano-4-hydroxycinnamic acid in 50% acetonitrile/0.1% TFA was used for peptide measurements.
(§6) To further access the compatibility of biomolecules and various CPol derivatives within the electrochemical bioconjugation process, a range of biomolecules including peptides, proteins, and TMV, along with different CPol derivatives, were subjected to the NaI or NaBr redox catalyst and a low cell potential of 0.8 V or 1.2 V individually (FIG. 4A). Electrochemical bioconjugation was employed for labeling angiotensin I, which is a peptide hormone responsible for vasoconstriction and evaluated in blood pressure. […] However, when modifying angiotensin I with NaI at a voltage of 0.8V, certain side reactions may occur. […] Thus, we conducted a preliminary reaction involving bivalirudin or lysozyme, compound 1, and the resulting Br-substituted ketone without the application of electrochemical conditions (FIGS. 11-12).
(§7) Subsequently, the electrochemical bioconjugation approach was evaluated on lysozyme, a 14 kDa cationic protein. […] Additionally, the electrochemical bioconjugation on bovine serum albumin (BSA) was also evaluated. […] Besides, the conjugated biomolecule was conjugated with biotin-oxyamine under weak acidic conditions (m/z=18063 in FIG. 4F), which can be used in further cell labeling or protein proteomic analysis.

lysozyme = lysozyme (Gallus gallus, UniProt P00698); experiment: as above; type: biochemical; details: NaBr, constant voltage 1.2 V, phosphate buffer 0.1 M pH 7.0
lysozyme, sequence (P00698 19-147): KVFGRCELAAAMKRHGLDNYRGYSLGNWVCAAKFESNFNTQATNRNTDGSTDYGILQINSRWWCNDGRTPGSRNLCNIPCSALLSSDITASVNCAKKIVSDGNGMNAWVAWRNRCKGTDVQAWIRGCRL
Protocol: as §5, §6, §7

For `Br.C[N+](C)(CCO)CCCC1(O)CC1` [CPol-choline analog], the “cytotoxicity on Vero cells” value (Vero cells [1]; choline analog 0.2-5 mM) was “no cytotoxicity was observed”, the “metabolic incorporation into cells” value (NIH-3T3 cells) was “successfully incorporated” and the “metabolic incorporation into cells” value (Hela cells) was “successfully incorporated”. The “metabolic incorporation into cells” value (Vero cells [2]) was “successfully incorporated” and the “intracellular fluorescence intensity after labeling with FTSCA” value (Vero cells [3]) was “strongest fluorescent intensity”.

In the case of `OC1(c2ccccc2)CC1` [Formula I-1, Phenylcyclopropanol], the modification of bivalirudin (bivalirudin) is reported as “effectively modified”, the “labeling of angiotensin I” value (angiotensin I) is reported as “successful labeling” and the “conjugation to wt-TMV” value ([4]; CPol derivative 10 eq., NaI, potential of 1.2 V) is reported as “modified TMV peak ([M+132]^+) was found”. For the same molecule, the “conjugation to wt-TMV” value ([4]; identical electrochemical conditions (1.2 V) without NaI) was “no reaction occurred”, the “conjugation to BSA” value [5] was “efficiently conjugated” and the conjugation to lysozyme (lysozyme) was “efficiently conjugated”.

For `CCCCCC1(O)CC1` [Formula I-4, Pentylcyclopropanol], the “conjugation to wt-TMV” value ([4]; NaBr, constant voltage 1.2 V) was “successfully modified”, the “conjugation to BSA” value [5] was “efficiently conjugated” and the conjugation to lysozyme (lysozyme) was “efficiently conjugated”.

With `OC1(c2ccc(C(F)(F)F)cc2)CC1` [Formula I-7, 1-(4-(trifluoromethyl)phenyl)cyclopropan-1-ol] the conjugation to lysozyme (lysozyme) was “efficiently conjugated”.

In the case of `[I-].[Na+]` [NaI, sodium iodide], the “cytotoxicity on Vero cells” value (Vero cells [1]; NaI 0.01 to 10,000 μM) is reported as “safely co-cultured”.
